US20130040882A1, “USE OF FIBROBLAST GROWTH FACTOR FRAGMENTS” (NOVARTIS AG, priority 2003, published 2013)
Where “and” joins values, the source holds several entries; their conditions need not be identical. Equal values may be shown once.

Columns and labels:
bone tissue = test: Salmon calcitonin/PTS893 monkey study: histomorphometry of bone tissue (tibia, vertebra); format: in vivo, cynomolgus monkeys (Macaca fascicularis)
Description: Bone sections were stained for osteonectin, osteopontin and osteocalcin and were evaluated histopathologically. Histomorphometry of the bone tissue was performed regarding parameters for bone resorption and synthesis (osteoid formation).
Histomorphometry of bone tissue was performed to determine parameters related to bone resorption and bone synthesis (osteoid formation).

[1] = test system: transcript abundance in organs; test: Salmon calcitonin/PTS893 monkey study: multiorgan gene expression profiling (HG-U95Av2 arrays); format: in vivo, cynomolgus monkeys (Macaca fascicularis); parameters: key: B = bone; K = kidney; M = muscle; P = pituitary; L = liver; T = trachea
Description: A set of tissues was selected for gene expression profiling. These set included samples from kidney, bone, muscle, duodenum, pituitary and liver.
HG-U95Av2 GeneChip® expression probe arrays (Affymetrix, Santa Clara Calif. USA) were used. […] Workstation 400 (Affymetrix).
Data analysis was performed with the Silicon Genetics software package GeneSpring version 4.2.1 and 5. Average difference values below 20 were set to 20.
The threshold range for considering as up or down regulation was determined within the context of the biological interpretation of the study.
Increase and decrease reported here refer to transcript abundance, unless specifically stated.

[2] = Salmon calcitonin/PTS893 monkey study: urinalysis; conditions: urine
[3] = test system: transcript levels in several organs; test: In vivo gene expression profiling screen of peptides in mice (Example I); conditions: administration to mice
Description: In this EXAMPLE, 100 unknown chemically synthesized peptides are functionalized using the discovery method of the invention. Most of these peptides are present in human plasma.
As a control, twenty reference drugs are concurrently investigated with the discovery method of the invention. For this screening, one control and four treated groups of six males are treated for two weeks by daily administration by the subcutaneous route of the proteins. The reference drugs can be active for treating conditions in the areas of glaucoma, neuroprotection, neovascularisation, antiangiogenesis, acne, asthma and allergy, cardiovascular diseases, neurological disorder, pain, diabetes, hypercholesterolemia, osteoporosis and oncology.
The expectations from those selected active peptides are that (a) several potential therapeutic drugs could be identified; (b) target peptides for therapeutic antibodies could be identified; (c) new targets for research, deduced from the reconstructed biochemical pathways, could be identified; and (d) biomarkers, to be used to develop diagnostic tests could be identified. […] The protein/peptide selection rate is approximately 20%. The selection/prioritization criteria are the type of activity, the therapeutic interest and the suspected toxicity.

[4] = tibia, group mean (males and females)
[5] = tibia, individual animals (males and females)
[6] = vertebra, group mean (males and females)
[7] = vertebra, individual animals (males and females)
[8] = Effects on Osteoblasts, autocrine/paracrine regulation of osteoblast function
[9] = Effects on Osteoblasts, endocrine regulation of osteoblast function
[10] = Effects on Osteoclasts: bone resorption by osteoclast
[11] = Effects on Osteoclasts: osteoclast determination, survival and differentiation
[12] = Extracellular matrix, collagen synthesis
[13] = female monkeys, day 13 of dosing
[14] = female monkeys, day −7 relative to start of dosing
[15] = female monkeys, day −8 relative to start of dosing
[16] = male monkeys, day −5 relative to start of dosing
[17] = male monkeys, day −6 relative to start of dosing

Leu8, Asp10, Lysll, A1a16, G1n18, Thr33, A1a34 human PTH 1-34 [PTS893, Leu8, Asp10, Lysll, A1a16, G1n18, Thr33, A1a34 human PTH 1-34 [hPTH(1-34)]]
Increase in osteoid surface (bone tissue; tibia): 49% | Increase in osteoid volume (bone tissue; tibia): 37% | Increase in the osteoblast surface (bone tissue; tibia): 40% | Increase of cortical porosity (bone tissue; tibia (T)): 54% | Reduction of cortical thickness (bone tissue; tibia (T)): 18% | BT/TV (trabecular bone volume) (bone tissue; [4]): 21.72% | Ct Por (cortical porosity) (bone tissue; [4]): 2.90% | Ct Th (cortical thickness) (bone tissue; [4]): 951.48 μm | ES/BS (eroded surface) (bone tissue; [4]): 4.11% | OS/BS (osteoid surface) (bone tissue; [4]): 49.25% | OV/BV (osteoid volume) (bone tissue; [4]): 9.74% | Obs/BS (osteoblast surface) (bone tissue; [4]): 20.28% | Tb N (trabecular number) (bone tissue; [4]): 1.85 mm^−1 | Tb Th (trabecular thickness) (bone tissue; [4]): 117.25 μm | BT/TV (trabecular bone volume) (bone tissue; [5]): 19.69% and 16.65% and 25.74% and 24.78% | Ct Por (cortical porosity) (bone tissue; [5]): 2.76% and 2.94% (2×) and 2.95% | Ct Th (cortical thickness) (bone tissue; [5]): 1022.62 μm and 893.43 μm and 950.33 μm and 939.53 μm | ES/BS (eroded surface) (bone tissue; [5]): 4.62% and 4.76% and 4.21% and 2.85% | OS/BS (osteoid surface) (bone tissue; [5]): 54.84% and 43.57% and 43.63% and 54.97% | OV/BV (osteoid volume) (bone tissue; [5]): 11.24% and 9.61% and 8.14% and 9.95% | Obs/BS (osteoblast surface) (bone tissue; [5]): 16.16% and 21.25% and 18.46% and 25.25% | Tb N (trabecular number) (bone tissue; [5]): 1.52 mm^−1 and 1.79 mm^−1 and 2.13 mm^−1 and 1.97 mm^−1 | Tb Th (trabecular thickness) (bone tissue; [5]): 129.22 μm and 93.20 μm and 120.52 μm and 126.07 μm | Increase in osteoid surface (bone tissue; vertebra): 37% | Increase in osteoid volume (bone tissue; vertebra): 213% | Increase in the osteoblast surface (bone tissue; vertebra): 24% | Reduction of cortical thickness and increase of cortical porosity (bone tissue; vertebra (V)): not in vertebra | BT/TV (trabecular bone volume) (bone tissue; [6]): 20.95% | Ct Por (cortical porosity) (bone tissue; [6]): 1.07% | Ct Th (cortical thickness) (bone tissue; [6]): 675.50 μm | ES/BS (eroded surface) (bone tissue; [6]): 4.53% | OS/BS (osteoid surface) (bone tissue; [6]): 25.36% | OV/BV (osteoid volume) (bone tissue; [6]): 4.45% | Obs/BS (osteoblast surface) (bone tissue; [6]): 9.56% | Tb N (trabecular number) (bone tissue; [6]): 1.68 mm^−1 | Tb Th (trabecular thickness) (bone tissue; [6]): 123.43 μm | BT/TV (trabecular bone volume) (bone tissue; [7]): 15.15% and 20.23% and 23.56% and 24.86% | Ct Por (cortical porosity) (bone tissue; [7]): 1.49% and 1.45% and 0.41% and 0.92% | Ct Th (cortical thickness) (bone tissue; [7]): 707.43 μm and 629.35 μm and 740.87 μm and 624.35 μm | ES/BS (eroded surface) (bone tissue; [7]): 9.31% and 2.30% and 2.55% and 3.96% | OS/BS (osteoid surface) (bone tissue; [7]): 18.84% and 41.28% and 23.65% and 17.66% | OV/BV (osteoid volume) (bone tissue; [7]): 3.24% and 8.42% and 3.49% and 2.66% | Obs/BS (osteoblast surface) (bone tissue; [7]): 10.36% and 9.07% and 10.47% and 8.33% | Tb N (trabecular number) (bone tissue; [7]): 1.44 mm^−1 and 1.70 mm^−1 and 1.75 mm^−1 and 1.84 mm^−1 | Tb Th (trabecular thickness) (bone tissue; [7]): 105.46 μm and 118.79 μm and 134.66 μm and 134.82 μm | Organs where changes in expression were seen: Cyclin-dependent kinases 5, 6, 10 ([1]; Cell cycle): B | Organs where changes in expression were seen: Cyclin-dependent kinases inhibitor 1A, 1C, 2D) ([1]; Cell cycle): B | Organs where changes in expression were seen: Cyclins (A, A2, B1, C, D2, E2, G1, G2) ([1]; Cell cycle): B | Organs where changes in expression were seen: Bone Morphogenetic Proteins [1, 8]: B | Organs where changes in expression were seen: Fibroblast Growth Factors [1, 8]: B | Organs where changes in expression were seen: Insulin-like Growth Factors [1, 8]: B | Organs where changes in expression were seen: TGFs [1, 8]: B | Organs where changes in expression were seen: Tob [1, 8]: B | Organs where changes in expression were seen: Activin [1, 9]: B | Organs where changes in expression were seen: Retinoic receptor X [1, 9]: B | Organs where changes in expression were seen: Y-box binding protein ([1]; Effects on Osteoblasts, transcription factor that regulates collagen type 1 synthesis): B | Organs where changes in expression were seen: H+ ATP-ases [1, 10]: B | Organs where changes in expression were seen: ODF/OPGL: osteoprotegerin ligand [1, 10]: B | Organs where changes in expression were seen: Granulocyte to macrophage colony-stimulating factor (CSF1) [1, 11]: B | Organs where changes in expression were seen: Monocyte to macrophage differentiation associate (MMD) [1, 11]: B | Organs where changes in expression were seen: PU.1 (SPI1) [1, 11]: B | Organs where changes in expression were seen: Aggrecan ([1]; Extracellular matrix component): B | Organs where changes in expression were seen: Chondroitin sulphate proteoglycan ([1]; Extracellular matrix component): B | Organs where changes in expression were seen: Dermatopontin ([1]; Extracellular matrix component): B | Organs where changes in expression were seen: Heparan sulphate proteoglycan ([1]; Extracellular matrix component): B | Organs where changes in expression were seen: Syndecan ([1]; Extracellular matrix component): B | Organs where changes in expression were seen: Integrins ([1]; Extracellular matrix, cell attachment, signal transduction): B | Organs where changes in expression were seen: Lysyl hydroxylase [1, 12]: B | Organs where changes in expression were seen: Procollagen endopeptidase/proteinase [1, 12]: B | Organs where changes in expression were seen: Adenylate cyclase ([1]; Signal transduction): B | Organs where changes in expression were seen: CREM ([1]; Signal transduction): B | Organs where changes in expression were seen: Calcyclin binding protein ([1]; Signal transduction): B | Organs where changes in expression were seen: MAPK ([1]; Signal transduction): B | Organs where changes in expression were seen: Phosphatidylinositol pathway ([1]; Signal transduction): B | Organs where changes in expression were seen: Phosphodiesterase (IB, 4A, 4B) ([1]; Signal transduction): B | Organs where changes in expression were seen: Phospholipase (C, D) ([1]; Signal transduction): B | Organs where changes in expression were seen: SMAD pathway ([1]; Signal transduction): B | Organs where changes in expression were seen: STAT pathway ([1]; Signal transduction): B | Organs where changes in expression were seen: Amelogenin (cement component) ([1]; cynomolgus monkey, in vivo): B | Organs where changes in expression were seen: Dentin (mineral matrix protein) ([1]; cynomolgus monkey, in vivo): B | Organs where changes in expression were seen: VEGF ([1]; cynomolgus monkey, in vivo): B | CREAT [2, 13]: 5620 µmol/L and 8060 µmol/L | Ca2+ [2, 13]: 20.05 mmol/L and 12.35 mmol/L | Cl− [2, 13]: 101 mmol/L and 133 mmol/L | D-PYR [2, 13]: 1356 nmol/L and 2036 nmol/L | LDH [2, 13]: 10.0 IU/L and 9.0 IU/L | Mg2+ [2, 13]: 6.90 mmol/L and 5.90 mmol/L | NTx/Crea [2, 13]: 447 nME/mM and 705 nME/mM | Pyr/Crea [2, 13]: 241 nM/mM and 253 nM/mM | VOLUME [2, 13]: 52 mL and 42 mL | NTx/Crea [2, 14]: 576 nME/mM and 634 nME/mM | Pyr/Crea [2, 14]: 163 nM/mM and 181 nM/mM | CREAT [2, 15]: 19160 µmol/L and 14060 µmol/L | Ca2+ [2, 15]: 11.50 mmol/L and 6.60 mmol/L | K+ [2, 15]: 302 mmol/L and 164 mmol/L | LDH [2, 15]: 11.0 IU/L and 18.0 IU/L | Mg2+ [2, 15]: 7.35 mmol/L and 4.00 mmol/L | Na+ [2, 15]: 145 mmol/L and 118 mmol/L | Ca2+ ([2]; male monkeys, day 13 of dosing): 7.55 mmol/L and 13.10 mmol/L | I.PHOS ([2]; male monkeys, day 13 of dosing): 0.10 mmol/L and 0.17 mmol/L | K+ ([2]; male monkeys, day 13 of dosing): 107 mmol/L and 69 mmol/L | LDH ([2]; male monkeys, day 13 of dosing): 14.0 IU/L and 19.0 IU/L | Mg2+ ([2]; male monkeys, day 13 of dosing): 8.70 mmol/L and 5.25 mmol/L | NAG ([2]; male monkeys, day 13 of dosing): 2.9 IU/l and 2.6 IU/l | NTx/Crea ([2]; male monkeys, day 13 of dosing): 621 nME/mM and 547 nME/mM | Pyr/Crea ([2]; male monkeys, day 13 of dosing): 214 nM/mM and 204 nM/mM | CREAT [2, 16]: 16160 µmol/L and 16120 µmol/L | CTx [2, 16]: 11865 µg/L and 20108 µg/L | D-PYR [2, 16]: 1660 nmol/L and 2278 nmol/L | NTx [2, 16]: 5403 nM BCE and 8757 nM BCE | NTx/Crea [2, 16]: 334 nME/mM and 543 nME/mM | Pyr/Crea [2, 16]: 103 nM/mM and 141 nM/mM | CREAT [2, 17]: 16160 µmol/L and 9940 µmol/L | Ca2+ [2, 17]: 5.10 mmol/L and 3.50 mmol/L | K+ [2, 17]: 86 mmol/L and 125 mmol/L | LDH [2, 17]: 7.0 IU/L and 9.0 IU/L

B1: FGF23CTP: unique 75-mer COOH-terminal peptide of FGF-23, SEQ ID NO: 2 (peptide, listed as Homo sapiens)
chain: HTRSAEDDSERDPLNVLKPRARMTPAPASCSQELPSAEDNSPMASDPLGVVRGGRVNTHAGGTGPEGCRPFAKFI
Transcript level changes in several organs (activity) [3]: active
